Reference: patent US7169803B2, “N-substituted prodrugs of fluorooxindoles” (Bristol-Myers Squibb Company, priority 2004, dated 2007)
Where a name gives a salt, the structure may show the parent alone.

Legend:
[1] = test system: traumatic brain injury (TBI); conditions: rat TBI model; Cheney, et al. 2001; cited from earlier work
[2] = cited from earlier work
[3] = test system: cloned mammalian (mSlo or hSlo) BK channels heterologously expressed in Xenopus oocytes; assay: BK-mediated outward current in Xenopus oocytes, two-electrode voltage clamp; assay type: cell-based; conditions: 10 μM, at least 5 oocytes, steps from -60 mV to +140 mV
Method: (§1) The ability of the compound of Formula IV to open BK channels and increase whole-cell outward (K^+) BK-mediated currents was assessed under voltage-clamp conditions by determining their ability to increase cloned mammalian (mSlo or hSlo) BK-mediated outward current heterologously expressed in Xenopus oocytes [Butler, A., et al., Science, 261, pp. 221–224 (1993); and Dworetzky, S. I., et al., Mol. Brain Res., 27, pp. 189–193 (1994)]. The two BK constructs employed represent nearly structurally identical homologous proteins, and have proven to be pharmacologically identical in our tests. To isolate BK current from native (background, non-BK) current, the specific and potent BK channel-blocking toxin iberiotoxin (IBTX) [Galvez, A., et al., J. Biol. Chem, 265, pp. 11083–11090 (1990)] was employed at a supramaximal concentration (50 nM). The relative contribution of BK channels current to total outward current was determined by subtraction of the current remaining in the presence of IBTX (non-BK current) from the current profiles obtained in all other experimental conditions (control, drug, and wash). […] The compound of Formula IV was shown in at least 5 oocytes at a concentration of 10 μM to increase BK current to 170% of control of IBTX-sensitive current. […]

[4] = test system: non-BK native currents in the oocytes; assay: Effect on non-BK native currents in oocytes (current remaining in presence of IBTX); assay type: cell-based, Xenopus; conditions: at the tested concentration
Method: as §1

[5] = test system: focal cerebral ischemia (MCAO); assay: Focal stroke model: permanent MCA/CCA occlusion, cortical infarct volume; assay type: in vivo, Wistar rat; conditions: intravenously (0.3 mg//kg) single bolus two hours after MCA occlusion; vs vehicle-treated control; measured 24 hours after MCAO
Method: To determine the ability of the compounds of the present invention to reduce cell loss resulting from neuronal ischemia, a standard focal cerebral ischemia is induced by permanent occlusion of the left middle cerebral artery (MCA) and common carotid artery (CCA) with one hour occlusion of the right CCA in the Wistar rat. The surgeries are performed using the sub-temporal approach of A. Tamura, et al., J. Cereb. Blood Flow Metab., 1, pp. 53–60, (1981) and its modifications [K. Osborne, et al., J. Neurol Neurosurg. Psychiatry, 50, pp. 402–410 (1987) and S. Menzies, et al., Neurosurgery, 31, pp. 100–107, (1992).]
The compound of Formula IV was evaluated in the focal stroke model involving permanent occlusion of the left MCA (MCAO) and CCA (CCAO) and temporary occlusion of the right CCA in the Wistar rat [Gribkoff, et al. Nature Med. 7, pp. 471–477 (2001)]. This procedure results in a reliably large neocortical infarct volume that is measured by means of vital dye exclusion in serial slices through the brain 24 hours after MCAO. In the present test, compounds were administered using an i.v. or i.p. route of administration two hours after occlusion.

| SMILES | melting point | other results |
| --- | --- | --- |
| COc1ccc(Cl)cc1[C@]1(F)C(=O)N(COC(=O)CN(C)C)c2cc(C(F)(F)F)ccc21 (as salt: hydrochloride) [Example 14, (S)-(3-(5-chloro-2-methoxyphenyl)-3-fluoro-2-oxo-6-(trifluoromethyl)indolin-1-yl)methyl 2-(dimethylamino)acetate, hydrochloride)] | 157 to 160 °C | – |
| COc1ccc(Cl)cc1[C@]1(F)C(=O)N(COC(=O)c2ccc(CN3CCOCC3)cc2)c2cc(C(F)(F)F)ccc21 (as salt: hydrochloride) [Example 23, (S)-(3-(5-chloro-2-methoxyphenyl)-3-fluoro-2-oxo-6-(trifluoromethyl)indolin-1-yl)methyl 4-(morpholinomethyl)benzoate, hydrochloride] | 174 to 178 °C | – |
| COc1ccc(Cl)cc1[C@]1(F)C(=O)N(COC(=O)c2ccc(CN3CCN(C)CC3)cc2)c2cc(C(F)(F)F)ccc21 (as salt: hydrochloride) [Example 25] | 265 to 269 °C (dec.) | – |
| COc1ccc(Cl)cc1[C@]1(F)C(=O)N(COC(=O)c2cccc(CN3CCN(C)CC3)c2)c2cc(C(F)(F)F)ccc21 (as salt: hydrochloride) [Example 26] | 190 to 193 °C (dec.) | – |
| CCN(CC)Cc1cccc(C(=O)OCN2C(=O)[C@@](F)(c3cc(Cl)ccc3OC)c3ccc(C(F)(F)F)cc32)c1 (as salt: hydrochloride) [Example 28, (S)-(3-(5-chloro-2-methoxyphenyl)-3-fluoro-2-oxo-6-(trifluoromethyl)indolin-1-yl)methyl 3-((diethylamino)methyl)benzoate, hydrochloride] | 195 to 198 °C (dec.) | – |
| CCN(CC)CCN(CC)Cc1ccc(C(=O)OCN2C(=O)[C@@](F)(c3cc(Cl)ccc3OC)c3ccc(C(F)(F)F)cc32)cc1 (as salt: hydrochloride) [Example 29, (S)-(3-(5-chloro-2-methoxyphenyl)-3-fluoro-2-oxo-6-(trifluoromethyl)indolin-1-yl)methyl 4-(((2-(diethylamino)ethyl)(ethyl)amino)methyl)benzoate, hydrochloride] | 155 to 160 °C | – |
| CCN(CC)CCN(CC)Cc1cccc(C(=O)OCN2C(=O)[C@@](F)(c3cc(Cl)ccc3OC)c3ccc(C(F)(F)F)cc32)c1 (as salt: hydrochloride) [Example 30, (S)-(3-(5-chloro-2-methoxyphenyl)-3-fluoro-2-oxo-6-(trifluoromethyl)indolin-1-yl)methyl 3-(((2-(diethylamino)ethyl)(ethyl)amino)methyl)benzoate, hydrochloride] | 120 to 125 °C | – |
| CCN(CC)Cc1ccc(C(=O)OCN2C(=O)[C@@](F)(c3cc(Cl)ccc3OC)c3ccc(C(F)(F)F)cc32)cc1 (as salt: trifluoroacetate) [Example 27, (S)-(3-(5-chloro-2-methoxyphenyl)-3-fluoro-2-oxo-6-(trifluoromethyl)indolin-1-yl)methyl 4-((diethylamino)methyl)benzoate, trifluoroacetate] | 75 to 80 °C | – |
| COc1ccc(Cl)cc1[C@]1(F)C(=O)N(COC(=O)c2ccc(CN3CCCCC3)cc2)c2cc(C(F)(F)F)ccc21 (as salt: trifluoroacetate) [Example 31, (S)-4-Piperidin-1-ylmethyl-benzoic acid 3-(5-chloro-2-methoxy-phenyl)-3-fluoro-2-oxo-6-trifluoromethyl-2,3-dihydro-indol-1-ylmethyl ester, trifluoroacetate] | 85 to 89 °C | – |
| COc1ccc(Cl)cc1[C@]1(F)C(=O)Nc2cc(C(F)(F)F)ccc21 [Compound of Formula (S)-IV, (S)-3-(5-chloro-2-methoxyphenyl)-3-fluoro-6-(trifluoromethyl)-indolin-2-one] | – | reductions in edema in regions adjacent to the impact zone [1]: significant reductions in edema; aqueous solubility [2]: low aqueous solubility |
| COc1ccc(Cl)cc1[C@]1(F)C(=O)N(C(=O)OCOC(=O)CCC(=O)O)c2cc(C(F)(F)F)ccc21 [Example 16, (S)-4-((3-(5-chloro-2-methoxyphenyl)-3-fluoro-2-oxo-6-(trifluoromethyl)indoline-1-carbonyloxy)methoxy)-4-oxobutanoic acid] | 68 to 71 °C (dec.) | – |
| COc1ccc(Cl)cc1[C@]1(F)C(=O)N(C(=O)N[C@@H](C)C(=O)O)c2cc(C(F)(F)F)ccc21 [Example 35, (S)-2-((S)-3-(5-chloro-2-methoxyphenyl)-3-fluoro-2-oxo-6-(trifluoromethyl)-indoline-1-carboxamido)propanoic acid] | 103 to 107 °C | – |
| COc1ccc(Cl)cc1[C@]1(F)C(=O)N(C(=O)N[C@@H](CCC(=O)O)C(=O)O)c2cc(C(F)(F)F)ccc21 [Example 37, (S)-2-((S)-3-(5-chloro-2-methoxyphenyl)-3-fluoro-2-oxo-6-(trifluoromethyl)-indoline-1-carboxamido)pentanedioic acid] | 90 to 94 °C | – |
| COc1ccc(Cl)cc1[C@]1(F)C(=O)N(C(=O)NC(C)(C)C(=O)O)c2cc(C(F)(F)F)ccc21 [Example 38, (S)-2-(3-(5-chloro-2-methoxyphenyl)-3-fluoro-2-oxo-6-(trifluoromethyl)-indoline-1-carboxamido)-2-methylpropanoic acid] | 107 to 110 °C | – |
| COc1ccc(Cl)cc1[C@]1(F)C(=O)N(C(=O)N[C@H](C(=O)O)C(C)C)c2cc(C(F)(F)F)ccc21 [Example 39, (S)-2-((S)-3-(5-chloro-2-methoxyphenyl)-3-fluoro-2-oxo-6-(trifluoromethyl)-indoline-1-carboxamido)-3-methylbutanoic acid] | 100 to 104 °C | – |
| CC[C@H](C)[C@H](NC(=O)N1C(=O)[C@@](F)(c2cc(Cl)ccc2OC)c2ccc(C(F)(F)F)cc21)C(=O)O [Example 40, (2S,3S)-2-((S)-3-(5-chloro-2-methoxyphenyl)-3-fluoro-2-oxo-6-(trifluoromethyl)indoline-1-carboxamido)-3-methylpentanoic acid] | 88 to 92 °C | – |
| COc1ccc(Cl)cc1[C@]1(F)C(=O)N(C(=O)N[C@@H](Cc2ccccc2)C(=O)O)c2cc(C(F)(F)F)ccc21 [Example 41, (S)-2-((S)-3-(5-chloro-2-methoxyphenyl)-3-fluoro-2-oxo-6-(trifluoromethyl)-indoline-1-carboxamido)-3-phenylpropanoic acid] | 98 to 102 °C | – |
| COc1ccc(Cl)cc1[C@]1(F)C(=O)N(C(=O)NCCC(=O)O)c2cc(C(F)(F)F)ccc21 [Example 42, (S)-3-(3-(5-chloro-2-methoxyphenyl)-3-fluoro-2-oxo-6-(trifluoromethyl)-indoline-1-carboxamido)propanoic acid] | 72 to 76 °C | – |
| COc1ccc(Cl)cc1C1(F)C(=O)Nc2cc(C(F)(F)F)ccc21 (stereo not shown) [compound of Formula IV, 3-(5-chloro-2-methoxyphenyl)-3-fluoro-6-(trifluoromethyl)indolin-2-one] | – | increase BK current to % of control of IBTX-sensitive current [3]: 170 % of control; effect on non-BK native currents in the oocytes [4]: did not effect non-BK native currents; reduction of cortical infarct volume [5]: about 28% |
